Laboratory results reported in paper PMC10542788, “Discovery of a cystathionine γ-lyase (CSE) selective inhibitor targeting active-site pyridoxal 5′-phosphate (PLP) via Schiff base formation” (Scientific Reports, 2023).

Legend:
rCBS = target: T1, rCBS (Rattus norvegicus, UniProt P32232); assay: rCBS inhibition, HSip-1 fluorescence; type: biochemical; details: 30 µM
T1 construct: GST (N); HA (C); made in house; host or cells: E. coli BL21
T1 sequence (P32232 1-561): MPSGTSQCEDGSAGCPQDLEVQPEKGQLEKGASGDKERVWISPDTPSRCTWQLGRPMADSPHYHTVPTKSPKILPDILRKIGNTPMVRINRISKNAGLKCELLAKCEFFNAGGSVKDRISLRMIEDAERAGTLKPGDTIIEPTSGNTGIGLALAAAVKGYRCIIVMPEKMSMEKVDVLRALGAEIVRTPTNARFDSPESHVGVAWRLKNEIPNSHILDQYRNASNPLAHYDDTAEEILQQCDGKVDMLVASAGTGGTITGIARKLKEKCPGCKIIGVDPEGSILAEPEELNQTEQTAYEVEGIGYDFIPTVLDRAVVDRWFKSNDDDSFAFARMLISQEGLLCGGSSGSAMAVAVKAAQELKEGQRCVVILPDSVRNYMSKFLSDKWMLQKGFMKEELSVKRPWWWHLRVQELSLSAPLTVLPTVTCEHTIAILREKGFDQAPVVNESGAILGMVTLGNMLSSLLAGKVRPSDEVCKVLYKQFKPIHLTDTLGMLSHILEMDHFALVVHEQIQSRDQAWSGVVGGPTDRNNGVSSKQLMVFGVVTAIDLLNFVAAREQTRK
Method: (§1) The selectivity of 1, 2 and PAG for rCSE over other RSS-producing enzymes, CBS and 3MST, was examined (Fig. 4a). CBS is a PLP-dependent enzyme, like CSE, and produces H2S from cysteine and homocysteine as substrates. 3MST is also an H2S-producing enzyme, but is not PLP-dependent and uses 3-mercaptopyruvate as a substrate. The amount of H2S produced by CBS or 3MST was evaluated in the presence or absence of the inhibitor by measuring the fluorescence intensity of HSip-1. […] We also examined the inhibitory activity towards two other PLP-dependent enzymes, MGL and ALT. MGL metabolizes L-methionine to α-ketobutyric acid, methanethiol and ammonia, and is inhibited by PAG[14]. MGL also produces H2S from homocysteine as a substrate, and this activity of MGL can be measured by fluorescence detection with HSip-1. […] The enzymatic activity of ALT can be assessed by means of a coupled assay using the reduction of pyruvate to L-lactate with lactate dehydrogenase and NADH and measuring the change in absorption of NADH.
10 µL of 2.5 mM cysteine and 2.5 mM homocysteine in 30 mM HEPES (pH 7.4) was added to 10 µL of a solution containing 20 µg/mL rCBS, 50 µM PLP, 100 µM SAM, 1 µM HSip-1, 0.005% tween 20, 0.5% DMSO and various concentrations of the inhibitors. The mixture was incubated at 37 °C for 2 h and the fluorescence intensity of HSip-1 was measured with a microplate reader.

rCSE = rCSE (Rattus norvegicus, UniProt P18757); assay: Live-cell fluorescence imaging of sulfane sulfur with SSP4 in rCSE-expressing COS-7 cells; type: cell-based; details: COS-7 cells expressing rCSE, 1000 µM
Chain of rCSE (P18757 whole entry): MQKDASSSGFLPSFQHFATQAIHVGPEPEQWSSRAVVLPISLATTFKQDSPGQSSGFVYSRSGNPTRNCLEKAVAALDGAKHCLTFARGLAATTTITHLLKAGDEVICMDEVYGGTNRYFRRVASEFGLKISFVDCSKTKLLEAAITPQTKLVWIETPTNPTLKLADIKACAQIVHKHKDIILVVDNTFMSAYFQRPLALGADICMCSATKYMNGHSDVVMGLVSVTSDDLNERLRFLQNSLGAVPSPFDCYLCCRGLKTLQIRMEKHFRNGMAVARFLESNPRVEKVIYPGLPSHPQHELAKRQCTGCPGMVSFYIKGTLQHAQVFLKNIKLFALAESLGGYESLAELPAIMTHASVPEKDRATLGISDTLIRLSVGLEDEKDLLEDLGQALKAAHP
Method: Finally, we evaluated the inhibitory activity of 1 towards rCSE in cells. […] So, we prepared COS-7 cells expressing rCSE, treated them with 1 at various concentrations (0, 100, 300 and 1000 µM), and performed fluorescence imaging of sulfane sulfur with SSP4. […] Thus, this inhibitor is available for live-cell experiments.
COS-7 cells were maintained in Dulbecco’s modified Eagle’s medium (DMEM) containing 10% fetal calf serum (FBS) and 1% penicillin streptomycin in a humidified atmosphere at 37 °C. The cells were seeded in 6 cm dishes at a density of 5 × 10^5 cells per dish. Transient transfection was performed with Lipofectamine 3000 (Thermo Fisher Scientific). Briefly, 2.5 µg plasmid, 5 µL P3000 reagent, and 7.5 µL Lipofectamine 3000 reagent were mixed in Opti-MEM, and the mixture was added to the cells. After incubation for 24 h, transfected COS-7 cells were re-seeded in eight-well chamber slides (µ-Slide 8 well high, ibidi GmbH) at a density of 4 × 10^4 cells per well. […] Excess probe was removed and the cells were washed with HBSS, then fluorescence images were captured using a Nikon A1R + confocal laser scanning microscope with an ECLIPSE Ti-E inverted microscope and a 20 × objective lens. […] Fluorescence intensity of images was calculated by using NIS-Elements software (Nikon).

hCSE = target: T2, hCSE (Homo sapiens, UniProt P32929); assay: hCSE inhibition in living HEK293T cells expressing hCSE (pretreatment, wash, lysis, HSip-1); type: cell-based
T2 construct: expressed in transfected cells; host or cells: HEK293T
T2 sequence (P32929 whole entry): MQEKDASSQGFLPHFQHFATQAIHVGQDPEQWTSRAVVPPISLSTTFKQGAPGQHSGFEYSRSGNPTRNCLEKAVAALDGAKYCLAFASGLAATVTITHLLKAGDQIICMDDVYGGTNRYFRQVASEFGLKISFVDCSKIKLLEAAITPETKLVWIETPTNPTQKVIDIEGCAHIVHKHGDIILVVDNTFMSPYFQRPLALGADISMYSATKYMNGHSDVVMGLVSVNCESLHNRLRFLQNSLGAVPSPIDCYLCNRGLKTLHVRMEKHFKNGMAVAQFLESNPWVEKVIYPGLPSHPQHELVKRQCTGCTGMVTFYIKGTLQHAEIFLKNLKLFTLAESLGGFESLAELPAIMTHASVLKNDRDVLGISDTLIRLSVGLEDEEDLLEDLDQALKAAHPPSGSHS
Method: We next examined the suitability of 1 for live-cell experiments. First, we performed CCK-8 assay (Dojindo) to examine its cytotoxicity. COS7 cells were incubated with various concentrations of 1 for 27 h at 37 °C under 5% CO2 and the cell viability was assessed. […] We then examined whether 1 can inhibit the enzymatic activity of hCSE in living cells by employing an indirect approach (Supplementary Fig. S12). HEK293T cells expressing hCSE were incubated with 0–1 mM 1 for 30 min, then washed twice with phosphate-buffered saline (PBS), and lysed in RIPA buffer (50 mM Tris–HCl buffer (pH 7.6), 150 mM NaCl, 1% Nonidet P40 Substitute, 0.5% sodium deoxycholate, protease inhibitor cocktail, 0.1% SDS). The inhibitory activity of 1 was evaluated by fluorescence detection after adding 1.5 mM cysteine, 100 μM PLP and 1 μM HSip-1 to these cell lysates.
Supplementary Figure S12. Experimental protocol for the indirect assessment of the hCSE-inhibitory activity of 1 in living cells. […] L-Cysteine (substrate), PLP and HSip-1 were added to the cell lysate (450 μg/mL cell lysate, 1.5 mM L-cysteine, 100 μM PLP, 1 μM HSip-1 in 30 mM HEPES buffer (pH 7.4) containing 0.005% Tween 20), and the fluorescence was measured with a plate reader (Ex. = 490 nm, Em. = 510 nm).

ALT = ALT inhibition, coupled absorbance assay (NADH, 340 nm); type: biochemical; details: 30 µM
Method: as §1
An alanine aminotransferase activity assay kit (BioVision, Inc.) was used to measure the activity of ALT. A mixture of L-alanine, NADH, LDH (lactate dehydrogenase) and ALT was incubated at 37 °C for 15 min, then α-ketoglutarate was added to the mixture and the absorbance at 340 nm was measured with a microplate reader.

selectivity for CSE over CBS (rCBS): high selectivity for CSE over CBS
SSP4 fluorescence intensity (sulfane sulfur) in cells (rCSE): almost completely suppressed
IC50 (hCSE; HEK293T cells expressing hCSE incubated 30 min with 1, washed, lysed, mean ± S.E., read-out: IC50, inhibitory activity towards hCSE in living cells): 170 ± 33 µM
cell-membrane permeability (hCSE; concluded from inhibition of hCSE in living cells): sufficiently cell-membrane permeable
Compound: NNC(=O)C(N)=O [Compound 1, oxamic hydrazide]
inhibitory activity towards ALT / selectivity for CSE over ALT (ALT): high selectivity for CSE over MGL and ALT
